Assay results published in patent US11905263B1, “4-nitro-N′-(2-(5-phenyl-1,3,4-oxadiazol-2-ylthio)acetoxy)benzimidamide as an antimicrobial compound” (KING FAISAL UNIVERSITY, priority 2023, dated 2024).

Tests used:
Assay type in all cases: cell-based
Staphylococcus aureus = assay: Agar plate disc-diffusion, antibacterial, inhibition zone; details: Gram positive
Protocol: (§1) The agar plate disc-diffusion method was applied. […] The discs were then placed onto the surface of agar plates (nutrient agar for bacteria and Sabouraud's dextrose agar for fungi) seeded with the test organism. Each plate contained 15 mL of the agar medium, previously seeded with 0.2 mL of the broth culture of each organism pregrown for 18 hours. The plates were incubated at 37° C. for 48 hours, and 72 hours for fungi. The inhibition zones was measured in mm. Discs impregnated with DMSO were used as a control, and its inhibition zone was subtracted from the tested compound actual inhibition zone.

Escherichia coli = assay: as above; details: Gram negative
Protocol: as §1

Pseudomonas aeruginosa = assay: as above; details: Gram negative
Protocol: as §1

Bacillus cereus = assay: as above; details: Gram positive
Protocol: as §1

Aspergillus flavus = assay: Agar plate disc-diffusion, antifungal, inhibition zone; details: fungal
Protocol: as §1

[1] = system: Chrysosporium keratinophilum; assay: as above; details: fungal
Protocol: as §1

[2] = A = concentration of comp. = 10,000 μL
[3] = B = concentration of comp. = 30,000 μL
[4] = C = concentration of comp. = 50,000 μL

## N/C(=N\OC(=O)CSc1nnc(-c2ccccc2)o1)c1ccc([N+](=O)[O-])cc1 [Compound 3, 4-nitro-N′-(2-(5-phenyl-1,3,4-oxadiazol-2-ylthio)acetoxy)benzimidamide]
Staphylococcus aureus; [2]
  inhibition zone, Staphylococcus aureus: 19 mm
Staphylococcus aureus; [3]
  inhibition zone, Staphylococcus aureus: 22 mm
Staphylococcus aureus; [4]
  inhibition zone, Staphylococcus aureus: 38 mm
Escherichia coli; [2]
  inhibition zone, Escherichia coli: 27 mm
Escherichia coli; [3]
  inhibition zone, Escherichia coli: 33 mm
Escherichia coli; [4]
  inhibition zone, Escherichia coli: 48 mm
Pseudomonas aeruginosa; [2]
  inhibition zone, Pseudomonas aeruginosa: 19 mm
Pseudomonas aeruginosa; [3]
  inhibition zone, Pseudomonas aeruginosa: 25 mm
Pseudomonas aeruginosa; [4]
  inhibition zone, Pseudomonas aeruginosa: 36 mm
Bacillus cereus; [2]
  inhibition zone, Bacillus Cereus: 20 mm
Bacillus cereus; [3]
  inhibition zone, Bacillus Cereus: 25 mm
Bacillus cereus; [4]
  inhibition zone, Bacillus Cereus: 34 mm
Aspergillus flavus; [2]
  inhibition zone, Aspergillus flavus: 17 mm
Aspergillus flavus; [3]
  inhibition zone, Aspergillus flavus: 23 mm
Aspergillus flavus; [4]
  inhibition zone, Aspergillus flavus: 35 mm
[1]; [2]
  inhibition zone, Chrysosporium keratinophilum: 26 mm
[1]; [3]
  inhibition zone, Chrysosporium keratinophilum: 28 mm
[1]; [4]
  inhibition zone, Chrysosporium keratinophilum: 43 mm
